Read-outs that look alike come from different tables or passages of the source.
Tests used:
Format in all cases: cell-based, human
[1] = test system: A549/ATCC (non-small cell lung); experiment: NCI anticancer screen, SRB assay, 48 h; details: Homo sapiens
How it was run: (§1)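 Compounds were tested across fifty three human cancer cell lines from nine tumour types. Each line got a dose-response curve of at least five concentrations at 10-fold dilutions, with continuous drug exposure and sulforhodamine B protein staining to estimate viability or growth.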

CAKI-1 (renal) = experiment: NCI anticancer screen, SRB assay, 48 h; details: Homo sapiens
How it was run: as §1

HCC-2998 (colon) = experiment: NCI anticancer screen, SRB assay, 48 h; details: Homo sapiens
How it was run: as §1

HCT-116 (colon) = experiment: NCI anticancer screen, SRB assay, 48 h; details: Homo sapiens
How it was run: as §1

HCT-15 (colon) = experiment: NCI anticancer screen, SRB assay, 48 h; details: Homo sapiens
How it was run: as §1

MDA-MB-435 (melanoma) = experiment: NCI anticancer screen, SRB assay, 48 h; details: Homo sapiens
How it was run: as §1

[2] = test system: NCI-H226 (non-small cell lung); experiment: NCI anticancer screen, SRB assay, 48 h; details: Homo sapiens
How it was run: as §1

NCI/ADR-RES (ovarian) = experiment: NCI anticancer screen, SRB assay, 48 h; details: Homo sapiens, NCI/ADR-RES
How it was run: as §1

OVCAR-4 (ovarian) = experiment: NCI anticancer screen, SRB assay, 48 h; details: Homo sapiens
How it was run: as §1

[3] = test system: RPMI-8226 (leukemia cell line); experiment: NCI anticancer screen, SRB assay, 48 h; details: Homo sapiens
How it was run: as §1

SK-MEL-5 (melanoma) = experiment: NCI anticancer screen, SRB assay, 48 h; details: Homo sapiens
How it was run: as §1

SN12C (renal) = experiment: NCI anticancer screen, SRB assay, 48 h; details: Homo sapiens, SN12C
How it was run: as §1

SNB-19 (CNS) = experiment: NCI anticancer screen, SRB assay, 48 h; details: Homo sapiens
How it was run: as §1

TD-47D (breast) = experiment: NCI anticancer screen, SRB assay, 48 h; details: Homo sapiens
How it was run: as §1

U251 (CNS) = experiment: NCI anticancer screen, SRB assay, 48 h; details: Homo sapiens
How it was run: as §1

UACC-257 (melanoma) = experiment: NCI anticancer screen, SRB assay, 48 h; details: Homo sapiens
How it was run: as §1

Breast cancer cell lines = experiment: NCI anticancer screen, SRB assay, panel summary; details: Homo sapiens
Procedure: (§2) Some of biological activity studies were carried out at the National Cancer Institute (NCI), Maryland, USA.
(§3) The compounds were evaluated for anticancer activity against fifty three human cancer cells derived from nine cancer types (leukemia cell line, non-small-cell lung cell line, colon cell line, CNS cell line, melanoma cell line, ovarian cell line, prostate cell line, and breast cancer cell line) as shown in Table 1. For each compound, dose response curves for each cell line were measured at a minimum of five concentrations at 10 fold dilutions. A protocol of 48 h continuous drug exposure was used and a sulforhodamine B (SRB) protein assay was used to estimate cell viability or growth.

CNS cancer cell lines = experiment: NCI anticancer screen, SRB assay, panel summary; details: for GI50: Homo sapiens
Procedure: as §2, §3

Colon cancer cell lines = experiment: NCI anticancer screen, SRB assay, panel summary; details: for GI50: Homo sapiens
Procedure: as §2, §3

[4] = test system: Leukemia cancer cell lines; experiment: NCI anticancer screen, SRB assay, panel summary; details: Homo sapiens
Procedure: as §2, §3

[5] = test system: Melanoma cancer cell lines; experiment: NCI anticancer screen, SRB assay, panel summary; details: for GI50: Homo sapiens
Procedure: as §2, §3

[6] = test system: Non-small cell lung cancer cell lines; experiment: NCI anticancer screen, SRB assay, panel summary; details: Homo sapiens
Procedure: as §2, §3

[7] = test system: Ovarian cancer cell lines; experiment: NCI anticancer screen, SRB assay, panel summary; details: Homo sapiens
Procedure: as §2, §3

[8] = test system: Prostate cancer cell lines; experiment: NCI anticancer screen, SRB assay, panel summary
Procedure: as §2, §3

Renal cancer cell lines = experiment: NCI anticancer screen, SRB assay, panel summary; details: Homo sapiens, Renal panel
Procedure: as §2, §3

[9] = 48 h exposure, SRB, read-out: GI50
[10] = read-out: pGI50 (-log of molar concentration causing 50% inhibition of net cell growth) (converted)

O=C(/C=C/c1cccc(O)c1)c1cccc(-n2cc(-c3ccccc3)[nH]c2=O)c1 [4a, 1-3-[(E)-3-(3-hydroxyphenyl)-2-propenoyl]phenyl-4-phenyl-2,3-dihydro-1H-2-imidazolone]
GI50 [1, 9]: 3.89 µM
GI50 [1, 10]: 3.89 µM
GI50 (CAKI-1 (renal); [9]): 13.3 µM
GI50 (CAKI-1 (renal); [10]): 13.2 µM
GI50 (HCC-2998 (colon); [9]): 4.09 µM
GI50 (HCC-2998 (colon); [10]): 4.07 µM
GI50 (HCT-116 (colon); [9]): 3.02 µM
GI50 (HCT-116 (colon); [10]): 3.02 µM
GI50 (HCT-15 (colon); [9]): 3.1 µM
GI50 (HCT-15 (colon); [10]): 3.09 µM
GI50 (MDA-MB-435 (melanoma); [9]): 3.12 µM
GI50 (MDA-MB-435 (melanoma); [10]): 3.09 µM
GI50 [2, 9]: 24.8 µM
GI50 [2, 10]: 24.5 µM
GI50 (NCI/ADR-RES (ovarian); NCl/ADR-RES, 48 h exposure, SRB, read-out: GI50): 3.73 µM
GI50 (NCI/ADR-RES (ovarian); [10]): 3.72 µM
GI50 (OVCAR-4 (ovarian); [9]): 5.3 µM
GI50 (OVCAR-4 (ovarian); [10]): 5.25 µM
GI50 [3, 9]: 2.15 µM
GI50 [3, 10]: 2.14 µM
GI50 (SK-MEL-5 (melanoma); [9]): 3.18 µM
GI50 (SK-MEL-5 (melanoma); [10]): 3.16 µM
GI50 (SN12C (renal); SN 12C, read-out: pGI50 (-log of molar concentration causing 50% inhibition of net cell growth) (converted)): 3.16 µM
GI50 (SN12C (renal); [9]): 3.14 µM
GI50 (SNB-19 (CNS); [9]): 10.9 µM
GI50 (SNB-19 (CNS); [10]): 11 µM
GI50 (TD-47D (breast); [9]): 4.24 µM
GI50 (TD-47D (breast); [10]): 4.27 µM
GI50 (U251 (CNS); U-251, 48 h exposure, SRB, read-out: GI50): 1.61 µM
GI50 (U251 (CNS); U-251, read-out: pGI50 (-log of molar concentration causing 50% inhibition of net cell growth) (converted)): 1.62 µM
GI50 (UACC-257 (melanoma); [9]): 7.68 µM
GI50 (UACC-257 (melanoma); [10]): 7.76 µM
GI50 (Breast cancer cell lines; Breast panel, log of concentration in mol/L causing 50% inhibition of net cell growth, read-out: mean graph midpoint (MG_MID) of Log10 GI50 (converted)): 4.79 µM
LC50 (Breast cancer cell lines; Breast panel, log of concentration leading to 50% net cell death, read-out: mean graph midpoint (MG_MID) of Log10 LC50 (converted)): 72.4 µM
GI50 (Breast cancer cell lines; five breast cancer cell lines, exposure at least 48 hrs, read-out: GI50, range over the panel): 2.47 to 9.32 µM
mean graph midpoint (MG_MID) of Log10 LC50 (CNS cancer cell lines; CNS panel, log of concentration leading to 50% net cell death): 4.60
GI50 (CNS cancer cell lines; CNS panel, log of concentration in mol/L causing 50% inhibition of net cell growth, read-out: mean graph midpoint (MG_MID) of Log10 GI50 (converted)): 5.75 µM
GI50 (CNS cancer cell lines; six CNS cancer cell lines, exposure at least 48 hrs, read-out: GI50, range over the panel): 1.61 to 18.2 µM
mean graph midpoint (MG_MID) of Log10 LC50 (Colon cancer cell lines; Colon panel, log of concentration leading to 50% net cell death): 4.55
GI50 (Colon cancer cell lines; Colon panel, log of concentration in mol/L causing 50% inhibition of net cell growth, read-out: mean graph midpoint (MG_MID) of Log10 GI50 (converted)): 2.75 µM
GI50 (Colon cancer cell lines; seven colon cancer cell lines, exposure at least 48 hrs, read-out: GI50, range over the panel): 1.83 to 4.09 µM
GI50 ([4]; Leukemia panel, log of concentration in mol/L causing 50% inhibition of net cell growth, read-out: mean graph midpoint (MG_MID) of Log10 GI50 (converted)): 2.29 µM
LC50 ([4]; Leukemia panel, log of concentration leading to 50% net cell death, read-out: mean graph midpoint (MG_MID) of Log10 LC50 (converted)): ≥ 100 µM
GI50 ([4]; two leukemia cancer cell lines (RPMI-8226 and K-562), exposure at least 48 hrs, read-out: GI50, range over the panel): 2.12 to 3.35 µM
GI50 ([5]; Melanoma panel, log of concentration in mol/L causing 50% inhibition of net cell growth, read-out: mean graph midpoint (MG_MID) of Log10 GI50 (converted)): 4.47 µM
GI50 ([5]; nine melanoma cancer cell lines, exposure at least 48 hrs, read-out: GI50, range over the panel): 1.85 to 8.26 µM
mean graph midpoint (MG_MID) of Log10 LC50 ([5]; Melanoma panel, log of concentration leading to 50% net cell death): 4.35
GI50 ([6]; Non-small cell lung panel, log of concentration in mol/L causing 50% inhibition of net cell growth, read-out: mean graph midpoint (MG_MID) of Log10 GI50 (converted)): 6.92 µM
GI50 ([6]; nine non-small cell lung cancer cell lines, exposure at least 48 hrs, read-out: GI50, range over the panel): 2.49 to 24.8 µM
GI50 ([7]; Ovarian panel, log of concentration in mol/L causing 50% inhibition of net cell growth, read-out: mean graph midpoint (MG_MID) of Log10 GI50 (converted)): 4.68 µM
LC50 ([7]; Ovarian panel, log of concentration leading to 50% net cell death, read-out: mean graph midpoint (MG_MID) of Log10 LC50 (converted)): 46.8 µM
GI50 ([7]; six ovarian cancer cell lines, exposure at least 48 hrs, read-out: GI50, range over the panel): 2.8 to 11.1 µM
GI50 ([8]; Homo sapiens, log of concentration in mol/L causing 50% inhibition of net cell growth, read-out: mean graph midpoint (MG_MID) of Log10 GI50 (converted)): 2.82 µM
LC50 ([8]; Homo sapiens, log of concentration leading to 50% net cell death, read-out: mean graph midpoint (MG_MID) of Log10 LC50 (converted)): 49 µM
mean graph midpoint (MG_MID) of Log10 TGI ([8]; log of concentration resulting in total inhibition of net cell growth): 4.90
GI50 (Renal cancer cell lines; log of concentration in mol/L causing 50% inhibition of net cell growth, read-out: mean graph midpoint (MG_MID) of Log10 GI50 (converted)): 4.17 µM
LC50 (Renal cancer cell lines; log of concentration leading to 50% net cell death, read-out: mean graph midpoint (MG_MID) of Log10 LC50 (converted)): 33.9 µM

From patent publication US8889874B2, “Imidazolone-chalcone derivatives as potential anticancer agent and process for the preparation thereof” (Council of Scientific and Industrial Research, priority 2010, dated 2014)
